Source: the NIST ThermoML archive (doi:10.1016/j.jct.2015.01.001)
Values joined by “and” are separate entries in the source; they are usually repeats but may differ in a detail not shown here. Identical values can stand only once.

How the values were obtained:
[1] = xn = mol fraction of the nth substance listed; conditions: Liquid; for viscosity: Falling or rolling sphere viscometry; for mass density: Vibrating tube method
[2] = Liquid; for vapor or sublimation pressure: Closed cell (Static) method; for viscosity: Falling or rolling sphere viscometry; for mass density: Vibrating tube method

O=C=O [carbon dioxide] + CO
[1]
Conditions | mass density [kg/m3] | viscosity [mPa·s]
298.15 K, 467.6 kPa, x1 = 0.037 | 792.7 | 0.523
298.15 K, 1827.6 kPa, x1 = 0.155 | 811.4 | 0.45
298.15 K, 2059.2 kPa, x1 = 0.176 | 814.6 | 0.436
298.15 K, 2411.7 kPa, x1 = 0.207 | 819.5 | 0.418
298.15 K, 2609.8 kPa, x1 = 0.225 | 822.2 | 0.407
298.15 K, 3070.8 kPa, x1 = 0.268 | 828.6 | 0.383
303.15 K, 514.4 kPa, x1 = 0.034 | 787 | 0.497
303.15 K, 1357.8 kPa, x1 = 0.099 | 796.3 | 0.459
303.15 K, 2202.1 kPa, x1 = 0.164 | 805.7 | 0.421
303.15 K, 2582.4 kPa, x1 = 0.194 | 809.9 | 0.403
303.15 K, 2803.7 kPa, x1 = 0.212 | 812.4 | 0.392
303.15 K, 3272.7 kPa, x1 = 0.249 | 817.7 | 0.37
308.15 K, 543.8 kPa, x1 = 0.032 | 783.2 | 0.467
308.15 K, 1454.6 kPa, x1 = 0.094 | 791.6 | 0.434
308.15 K, 2129.6 kPa, x1 = 0.14 | 797.9 | 0.408
308.15 K, 2391.6 kPa, x1 = 0.158 | 800.3 | 0.398
308.15 K, 2760.3 kPa, x1 = 0.184 | 803.7 | 0.385
308.15 K, 3001.7 kPa, x1 = 0.201 | 806 | 0.375
308.15 K, 3529.4 kPa, x1 = 0.238 | 810.9 | 0.356
313.15 K, 629.5 kPa, x1 = 0.031 | 777.5 | 0.443
313.15 K, 1587.2 kPa, x1 = 0.091 | 787.1 | 0.41
313.15 K, 2265.6 kPa, x1 = 0.133 | 793.6 | 0.39
313.15 K, 2523.6 kPa, x1 = 0.149 | 796 | 0.378
313.15 K, 2943.3 kPa, x1 = 0.175 | 800.1 | 0.368
313.15 K, 3205.9 kPa, x1 = 0.191 | 802.6 | 0.356
313.15 K, 3774.9 kPa, x1 = 0.227 | 808 | 0.337

CO [methanol]
[2]
Conditions | mass density [kg/m3] | vapor or sublimation pressure [kPa] | viscosity [mPa·s]
298.15 K | 786.7 | 17 | 0.544
303.15 K | 782 | 21.9 | 0.512
308.15 K | 777.3 | 27.9 | 0.486
313.15 K | 772.5 | 35.6 | 0.46

CO [methanol] + O=C=O
[1], x2 = 0
Conditions | mass density [kg/m3] | viscosity [mPa·s]
298.15 K, 17 kPa | 786.7 | 0.544
303.15 K, 21.9 kPa | 782 | 0.512
308.15 K, 27.9 kPa | 777.3 | 0.486
313.15 K, 35.6 kPa | 772.5 | 0.46

O=S1(=O)CCCC1 [sulfolane]
[2]
Conditions | mass density [kg/m3] | viscosity
303.15 K | 1262 | 10.3 mPa·s and 10.2 mPa·s
313.15 K | 1253 | 8.01 mPa·s
323.15 K | 1244 | 6.32 mPa·s
333.15 K | 1235 | 5.16 mPa·s
343.15 K | 1226 | 4.22 mPa·s
353.15 K | 1218 | 3.5 mPa·s
363.15 K | 1209 | 2.92 mPa·s
